Assay results published in patent US7041698B2, “Hepatitis C virus inhibitors” (Bristol-Myers Squibb Company, priority 2002, dated 2006).

Tests used:
[1] = target: T1, human liver cathepsin B (Homo sapiens, UniProt P07858); assay: Specificity assay, cathepsin B; format: biochemical; conditions: 2 hr pre-incubation at RT
T1 construct: purchased Sigma
Method: (§1) The specificities of compounds of the present invention were determined against a variety of serine proteases: human sputum elastase (HS), porcine pancreatic elastase (PPE) and human pancreatic chymotrypsin and one cysteine protease: human liver cathepsin B. In all cases a 96-well plate format protocol using calorimetric p-nitroaniline (pNA) substrate specific for each enzyme was used as described previously (Patent WO 00/09543) with some modifications to the serine protease assays. All enzymes were purchased from Sigma while the substrates were from Bachem.
(§2) Each assay included a 2 hr enzyme-inhibitor pre-incubation at RT followed by addition of substrate and hydrolysis to ˜30% conversion as measured on a Spectramax Pro microplate reader. Compound concentrations varied from 100 to 0.4 μM depending on their potency. […]
(§3) The percentage of inhibition was calculated using the formula: [1-((UVinh−UVblank)/(UVctl−UVblank))]×100 […]

[2] = target: T2, porcine pancreatic elastase (PPE) (Sus scrofa, UniProt P00772); assay: Specificity assay, porcine pancreatic elastase; format: biochemical; conditions: 2 hr pre-incubation at RT
T2 construct: purchased Sigma
Method: as §1, §2, §3

[3] = target: T3, NS3/4A BMS strain (UniProt P27958, C1454S/C1711G, species not given/STRAIN_BMS); assay: Recombinant HCV NS3/4A protease complex FRET peptide assay, BMS strain; format: biochemical, HCV genotype 1a; conditions: read-out: IC50 against the NS3/4A BMS strain in the enzyme assay
T3 construct: fused on or other part: Three-lysine solubilising tail at the C-terminus of NS4A
Source text: Recombinant HCV NS3/4A Protease Complex FRET Peptide Assay
The purpose of this in vitro assay was to measure the inhibition of HCV NS3 protease complexes, derived from the BMS, H77C or J416S strains, as described below, by compounds of the present invention. This assay provides an indication of how effective compounds of the present invention would be in inhibiting HCV proteolytic activity.
Serum from an HCV-infected patient was obtained from Dr. T. Wright, San Francisco Hospital. An engineered full-length cDNA (compliment deoxyribonucleic acid) template of the HCV genome (BMS strain) was constructed from DNA fragments obtained by reverse transcription-PCR (RT-PCR) of serum RNA (ribonucleic acid) and using primers selected on the basis of homology between other genotype 1a strains. From the determination of the entire genome sequence, a genotype 1a was assigned to the HCV isolate according to the classification of Simmonds et al. (See P Simmonds, K A Rose, S Graham, S W Chan, F McOmish, B C Dow, E A Follett, P L Yap and H Marsden, J. Clin. Microbiol., 31(6), 1493–1503 (1993)). […]

T2 sequence (P00772 27-266): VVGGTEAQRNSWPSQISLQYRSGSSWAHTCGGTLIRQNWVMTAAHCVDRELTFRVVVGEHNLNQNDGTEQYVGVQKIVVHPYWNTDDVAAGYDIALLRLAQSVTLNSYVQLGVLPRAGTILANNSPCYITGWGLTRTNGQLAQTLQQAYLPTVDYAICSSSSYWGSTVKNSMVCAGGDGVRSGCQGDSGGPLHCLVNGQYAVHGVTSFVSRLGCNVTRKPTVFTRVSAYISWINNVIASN

SMILES: C=CC1C[C@]1(NC(=O)[C@@H]1C[C@@H](OC(=O)Nc2ccccc2-c2ccccc2)CN1C(=O)[C@@H](NC(=O)OC(C)(C)C)C(C)(C)C)C(=O)NS(=O)(=O)C1CC1 (stereo partly drawn) [Compound 8, BocNH-P3(t-BuGly)-P2(Hyp(O—CO(NH-biphen-2-yl)))-P1(1R,2S VinylAcca)—CONHSO2Cyclopropane]
- IC50 [1]: > 100 µM
- IC50 [2]: > 100 µM
- IC50 [3]: 0.051 µM
